Laboratory results: patent US6436920B1, “Wrinkling modifiers” (Kao Corporation, priority 1996, dated 2002)

System: Wrinkles formed on hairless mice by exposure to UVB
Assay: Effect of the guanidine derivatives on wrinkles formed on hairless mice by exposure to UVB
Type: in vivo, Hairless mice (HR/ICR)
Details: for Area percent by image analysis (%): proportion of shadows of wrinkles on back skin replicas (14 mm, illuminated at 30 degrees), 4% in aqueous ethanol, 100 μl 5 times a week over 6 weeks, control 10.6; for Wrinkle index: visual score 1 (wrinkles completely removed or smoothed) to 4 (observed to a great extent), 4% in aqueous ethanol (50/50 vol. %), 100 μl applied 5 times a week over 6 weeks, groups of 8 mice, control 3.73
Experimental: Effect of the Guanidine Derivatives (1) to (16) on Wrinkles Formed on Hairless Mice by Exposure to UVB
(1) Hairless mice (HR/ICR, aged 6 weeks at the beginning of the experiment) were,exposed to UVB 3 times a week by using 6 Toshiba healthy lamps, 20SE. The amount of energy was measured by means of a UV-Radiometer, UVR-305/365D manufactured by TOKYO OPTICAL K.K. The dose upon one exposure was determined to be 1 MED or less, i.e., 65 mJ in an amount of energy of 0.28 mW/cm^2. The exposure was effected for 20 weeks. After confirming that the hairless mice had got wrinkles at their backs, they were divided into groups each consisting of 8 mice. Aqueous ethanol (water/ethanol=50/50 vol. %) solutions separately containing Compounds (1) to (16) at a concentration of 4% were applied 5 times a week to their corresponding groups of mice over 6 weeks in a dose of 100 μl. As a control, aqueous ethanol (water/ethanol=50/50 vol. %) was applied in a dose of 100 μl like the samples. After completion of the application, the degree of wrinkles was visually observed to evaluate the samples in accordance with the following standard (wrinkle index).
1: Wrinkles were completely removed or smoothed;
2: Wrinkles were scarcely observed;
3: Wrinkles were somewhat observed;
(2) In order to further analyze the particulars of wrinkles, skin replicas of the size of 14 mm in diameter were gathered from a portion of the back in each of the mice using a Hydrophilic Exaflex hydrophilic vinylsilicone impression material. Each of these replicas was held horizontally and illuminated at an angle of 30 degrees from the horizontal direction, thereby finding a proportion of shadows of the wrinkles as an area percent by means of an image analyzer.

Compound | Area percent by image analysis (%) | Wrinkle index
N=C(N)N1CCC(O)C1 (centres unmarked) [Compound (3)] | 4.32 | 2.50
N=C(N)N1CCC(O)C1 (centres unmarked) [Compound (12)] | 3.62 | 2.50
N=C(N)N1CCCC1C(=O)O (centres unmarked) [Compound (2)] | 2.48 | 2.125
N=C(N)N1CCOCC1 [Compound (10)] | 3.41 | 2.50
N=C(N)N1CCOCC1 [Compound (5)] | 4.76 | 2.75
N=C(N)N1CCCC1CO (centres unmarked) [Compound (13)] | 4.30 | 2.375
N=C(N)N1CCC(O)C1 (centres unmarked) [Compound (8)] | 3.26 | 2.25
N=C(N)N1CCN(C(=N)N)CC1 [Compound (7)] | 4.28 | 2.75
N=C(N)N1CC(O)CC1C(=O)O (centres unmarked) [Compound (1)] | 3.21 | 2.0
N=C(N)N1CCCC1CO (centres unmarked) [Compound (4)] | 5.37 | 2.50
N=C(N)N1CCCCC1 [Compound (15)] | 4.48 | 2.50
N=C(N)N1CCCC1 [Compound (14)] | 3.62 | 2.125
N=C(N)N1CCC(C(=O)O)CC1 [Compound (6)] | 3.51 | 2.75
N=C(N)N1CCC(CC(=O)O)CC1 [Compound (16)] | 4.25 | 2.25
N=C(N)N1CCN(C(=N)N)CC1 [Compound (11)] | 4.02 | 2.75
N=C(N)N1CCCC1CO (centres unmarked) [Compound (9)] | 4.00 | 2.375
